Results from US11331290B2, “Niclosamide for the treatment of cancer metastasis” (Max-Delbrück-Centrum für Molekulare Medizin in der …, priority 2011, dated 2022).

Legend:
DLD-1 cells = assay: Soft agar colony formation assay; format: cell-based, human; conditions: 1 μM, 7 days
Experimental: (§1) Analysis of anchorage-independent cell proliferation was achieved by soft agar colony formation assay. A bottom layer containing 0.5% w/v agarose, RPMI-1640 medium, 10% FBS and 1 μM niclosamide or the respective amount of DMSO was added to a 6 cm Ø dish and incubated at room temperature under sterile conditions for 10 minutes. Onto the solidified bottom layer a top layer was added containing 8×10^3 cells, 0.33% w/v agarose, RPMI-1640 medium, 10% FBS and 1 μM niclosamide or the respective amount of DMSO. Cells were seeded as single cells into the soft agar and incubated in a humidified incubator at 37° C. and 5% CO2 for 7 days. Colony formation was visualized by 10× magnification for an overview and 40× magnification for single colonies in the Leica DM IL light microscope (Leica Microsystems). Colony quantification was achieved by counting cell colonies of more than 4 cells in 10 squares of […]. Colony formation experiments were repeated twice, each in triplicates.
(§2) (A) S100A4 expression under niclosamide treatment. Cells were treated with 1 μM niclosamide for 24 hours. S100A4 expression was analyzed with qRT-PCR and immunoblot. (B) Cell migration under niclosamide treatment. Migration rates of cells treated with 1 μM niclosamide for 24 hours were determined in a Boyden chamber assay values were normalized to solvent-treated SW620 cells. (C) Cell invasion under niclosamide treatment. Cells were seeded onto Matrigel covered transwells and treated with 1 μM niclosamide for 24 hours. Invaded cells in the lower chamber were counted and normalized to solvent-treated SW620 cells. Differences in solvent vs. niclosamide-treated cells were analyzed by Student's t test. Data represent mean±SE of at least two independent experiments each performed in triplicate. (D) Directed migration under niclosamide treatment. Wounds of 300 μM width were set in a 60% confluent monolayer of cells on day 1. Cells were treated daily with 1 μM niclosamide for 4 days. Microphotographs of day 4 are presented here with black lines indicating margins of the wound on day 1; scale bar represents 200 μM. Directed migration data shown are representatives of three independent experiments. (E) Adhesive cell proliferation under niclosamide treatment. Cells were treated daily with 1 μM niclosamide. The amount of viable cells per well was determined by MTT assay. (F) Anchorage-independent cell growth under niclosamide treatment. Cells were plated as single cells into 0.33% (w/v) agarose and treatment (solvent or 1 μM niclosamide) containing medium. After 7 days colonies were visualized by light microscopy at 10× (overview) and 40× (single colony) magnification. (G) Quantification of colonies formed. Number of colonies (of more than 4 cells) was counted and normalized to solvent-treated SW620 cells. Differences in solvent vs. niclosamide-treated cells were analyzed by Student's t test. Data represent mean mean±SE of at least two independent experiments each performed in duplicates.

LS174T cells = assay: Soft agar colony formation assay; format: cell-based, human; conditions: 1 μM, 7 days
Experimental: as §1, §2

SW480 cells = assay: Soft agar colony formation assay; format: cell-based, human; conditions: 1 μM, 7 days
Experimental: as §1, §2

SW620 cells = assay: Soft agar colony formation assay; format: cell-based, human; conditions: 1 μM, 7 days
Experimental: as §1, §2

S100A4 mRNA = S100A4 mRNA in spleen tumor of xenograft mice (qRT-PCR); format: in vivo; conditions: for S100A4 mRNA level in spleen tumor, mean % of control mice / S100A4 mRNA level in spleen tumor, mean difference control vs niclosamide: day 24
Experimental: All experiments were performed in accordance with the UKCCCR guidelines and approved by the responsible local authorities (State Office of Health and Social Affairs, Berlin, Germany). HCT116-CMVp-LUC cells (3×10^6 cells per mouse, resuspended in 50 μL PBS) were intrasplenically transplanted into 6-week-old female nonobese diabetic-severe combined immunodeficiency (NOD-SCID) mice. Mice were randomly assigned to 3 groups and reatment of mice started 24 hours after cell transplantation. Mice of the control group (n=9) were treated with daily doses of solvent. Mice of the second group (n=9) were daily treated intraperitoneally with 20 mg per kg niclosamide. Mice of the third group (n=9) were treated intraperitoneally with two doses of 15 mg per kg niclosamide per day. The experimental endpoint was reached when mice appeared moribund and/or the spleen tumor was palpable. This was the case with the majority of control mice on day 24. For long-term in vivo experiments mice randomly assigned to 3 groups. Mice of the control group (n=6) were treated intraperitoneally with daily doses of solvent. Mice of the second group (n=6) were daily treated intraperitoneally with 20 mg per kg niclosamide. Mice of the third group (n=6) were daily treated intraperitoneally for 24 days with 20 mg per kg niclosamide and for the residual days with solvent. Mice were killed by cervical dislocation when tumor reached the maximum in accordance with the local authorities.
Spleen (as the transplantation site) and liver (as a metastasis target organ) were removed. The amount of S100A4 mRNA in the tumor was determined by Trizol RNA isolation of tumor cryosections and quantitative real-time RT-PCR. The level of metastasis was evaluated by scoring. For each liver, a score was calculated as the sum of the volumes of the individual metastases. For each metastasis the formula [width2]×length was applied.
(A) In vivo luminescence imaging of metastasis under niclosamide treatment. HCT116-CMVp-LUC cells stably expressing firefly luciferase (LUC) were intrasplenically transplanted into mice (per group n=4) followed by daily intraperitoneal treatment with 20 mg per kg niclosamide. For luminescence imaging, mice were anesthetized at the indicated days and received intraperitoneally D-luciferin. Exposure time for lateral and ventral imaging was 20 seconds per picture. In situ imaging and imaging of isolated organs was performed for 1 second per picture exposure time. Signal intensity of grayscale images (256 scale) were color coded (from low to high signal intensity: blue, green, yellow, red, white) and overlayed with bright field picture. (B) S100A4 mRNA level in spleen tumor of niclosamide-treated xenograft mice. Spleens from mice (per group n=9) were dissected on day 24. Tumor tissue was cryosected for RNA isolation. S100A4 mRNA level was measured by qRT-PCR and expressed as percentage of control mice. Differences were analyzed by two-sided one-way analysis of variance and Bonferroni post hoc multiple comparison test. Bars represent mean±SD. (C) Liver metastases size in niclosamide-treated xenograft mice. Liver was dissected from xenograft mice (per group n=9) intraperitoneally treated twice per day with 15 mg per kg or daily with 20 mg per kg niclosamide for 24 days. Metastasis was quantified by scoring. Data is given as mean±SD.
(A) S100A4 expression in vitro after discontinued niclosamide treatment. HCT116 cells were treated daily with 1 μM niclosamide for three consecutive days, medium was removed on day 4, and S100A4 expression was analyzed 24, 48, and 72 hours after niclosamide removal. S100A4 expression was analyzed by qRT-PCR and immunoblot. (B) Cell migration after discontinued niclosamide treatment. Cell migration rates of HCT116 cells treated as in (A) were determined by Boyden chamber assay. Differences in control vs. treated cells were analyzed by Student's t test. (C) Anchorage-dependent cell proliferation after discontinued niclosamide treatment. […]

[1] = 20 mg per kg daily intraperitoneally
[2] = 2×15 mg per kg per day intraperitoneally

O=C(Nc1ccc([N+](=O)[O-])cc1Cl)c1cc(Cl)ccc1O [niclosamide, 2′,5-dichloro-4′-nitrosalicylanilide]
anchorage-independent growth, colony size (DLD-1 cells): clearly smaller cell colonies
number of colonies, mean difference control vs niclosamide (DLD-1 cells): 72.5%
number of colonies, mean % (normalized to solvent-treated SW620 cells) (DLD-1 cells; solvent control 82.6%): 10.1%
anchorage-independent growth, colony size (LS174T cells): clearly smaller cell colonies
number of colonies, mean difference control vs niclosamide (LS174T cells): 74.6%
number of colonies, mean % (normalized to solvent-treated SW620 cells) (LS174T cells; solvent control 90.6%): 15.9%
anchorage-independent growth, colony size (SW480 cells): clearly smaller cell colonies
number of colonies, mean difference control vs niclosamide (SW480 cells): 63.8%
number of colonies, mean % (normalized to solvent-treated SW620 cells) (SW480 cells; solvent control 68.1%): 4.3%
anchorage-independent growth, colony size (SW620 cells): clearly smaller cell colonies
number of colonies, mean difference control vs niclosamide (SW620 cells): 96.4%
number of colonies, mean % (normalized to solvent-treated SW620 cells) (SW620 cells; solvent control 100.0%): 3.6%
S100A4 mRNA level in spleen tumor, mean % of control mice (S100A4 mRNA; [1]): 67.2%
S100A4 mRNA level in spleen tumor, mean difference control vs niclosamide (S100A4 mRNA; [1]): 32.9%
S100A4 mRNA level in spleen tumor, mean % of control mice (S100A4 mRNA; [2]): 58.4%
S100A4 mRNA level in spleen tumor, mean difference control vs niclosamide (S100A4 mRNA; [2]): 41.7%
S100A4 mRNA level in spleen tumor, mean difference control vs treatment (S100A4 mRNA; continuous treatment): 27%
S100A4 mRNA level in spleen tumor, mean % of control animals (S100A4 mRNA; continuous treatment (20 mg per kg i.p. daily)): 73%
S100A4 mRNA level in spleen tumor, mean difference control vs treatment (S100A4 mRNA; discontinuous treatment): 40.0%
S100A4 mRNA level in spleen tumor, mean % of control animals (S100A4 mRNA; discontinuous treatment (20 mg per kg i.p. for 24 days, then solvent)): 60%
